We go through 7 molecules from ChEMBL document CHEMBL1201862, “PubChem BioAssay data set” (2004).

The term AC50 denotes the concentration giving half of the maximal activity seen. One may read the Ki as the equilibrium dissociation constant of an inhibitor or competing ligand from its target.

Calls of active or inactive are those of the source.

What all share (type): functional
For assay [1], the target named is T1, Replicative DNA helicase DnaB (Mycobacterium tuberculosis, UniProt P9WMR3).
T1 sequence (P9WMR3 whole entry): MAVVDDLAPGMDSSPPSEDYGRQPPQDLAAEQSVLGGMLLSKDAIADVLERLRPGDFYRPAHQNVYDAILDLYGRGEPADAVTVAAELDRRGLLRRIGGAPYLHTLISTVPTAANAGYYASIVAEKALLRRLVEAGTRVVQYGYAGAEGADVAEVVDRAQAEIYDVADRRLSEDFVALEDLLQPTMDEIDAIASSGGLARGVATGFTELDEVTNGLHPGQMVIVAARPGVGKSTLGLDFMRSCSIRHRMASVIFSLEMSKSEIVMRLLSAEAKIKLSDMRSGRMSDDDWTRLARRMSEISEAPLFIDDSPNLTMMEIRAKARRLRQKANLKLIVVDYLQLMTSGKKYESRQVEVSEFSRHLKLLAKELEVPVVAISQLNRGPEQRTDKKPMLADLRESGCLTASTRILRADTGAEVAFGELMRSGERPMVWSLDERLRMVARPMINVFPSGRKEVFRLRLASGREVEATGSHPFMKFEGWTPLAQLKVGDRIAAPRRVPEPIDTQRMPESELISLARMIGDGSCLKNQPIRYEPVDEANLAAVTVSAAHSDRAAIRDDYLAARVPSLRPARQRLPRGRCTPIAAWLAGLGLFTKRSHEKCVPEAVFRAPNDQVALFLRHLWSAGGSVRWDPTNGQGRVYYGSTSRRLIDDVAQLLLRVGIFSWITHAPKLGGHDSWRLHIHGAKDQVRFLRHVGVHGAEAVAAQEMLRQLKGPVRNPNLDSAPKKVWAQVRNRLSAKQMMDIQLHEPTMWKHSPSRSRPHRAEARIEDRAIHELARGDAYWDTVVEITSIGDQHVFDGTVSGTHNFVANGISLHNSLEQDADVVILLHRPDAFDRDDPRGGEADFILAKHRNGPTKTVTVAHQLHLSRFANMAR
Briefly: DnaB intein splicing inhibitors, dose response, biochemical, cell-free fluorescence (AID 449749).

Assay [2] concerns the target T2, Serine/threonine-protein kinase TBK1 (Homo sapiens, UniProt Q9UHD2).
T2 sequence (Q9UHD2 whole entry): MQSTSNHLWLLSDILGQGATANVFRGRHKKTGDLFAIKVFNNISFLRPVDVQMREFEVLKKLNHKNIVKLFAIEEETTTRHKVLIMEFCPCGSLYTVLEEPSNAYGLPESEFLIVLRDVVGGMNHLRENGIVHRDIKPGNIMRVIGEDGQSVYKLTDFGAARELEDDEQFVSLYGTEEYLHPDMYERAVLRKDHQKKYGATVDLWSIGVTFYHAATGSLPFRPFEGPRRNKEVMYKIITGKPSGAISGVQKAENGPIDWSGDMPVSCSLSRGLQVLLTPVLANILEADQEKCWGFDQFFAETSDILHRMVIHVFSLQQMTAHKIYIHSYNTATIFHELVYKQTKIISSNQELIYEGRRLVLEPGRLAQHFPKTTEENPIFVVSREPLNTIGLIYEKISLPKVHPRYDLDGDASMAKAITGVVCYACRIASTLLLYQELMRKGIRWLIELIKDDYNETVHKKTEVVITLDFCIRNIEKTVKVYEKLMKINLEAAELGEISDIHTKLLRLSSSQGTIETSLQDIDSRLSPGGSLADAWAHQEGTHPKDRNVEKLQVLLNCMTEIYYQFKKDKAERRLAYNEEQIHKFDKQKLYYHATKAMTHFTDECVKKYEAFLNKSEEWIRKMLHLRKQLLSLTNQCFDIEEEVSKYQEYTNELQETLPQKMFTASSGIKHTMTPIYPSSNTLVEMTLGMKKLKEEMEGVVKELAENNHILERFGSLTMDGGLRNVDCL
Nature of the assay: Navigating the Kinome. Panel member name: TBK1.

Assay [3] has as its target Platelet-derived growth factor receptor alpha (Homo sapiens, UniProt P16234). Nature of the assay: Navigating the Kinome. Panel member name: PDGFRA.
The target in assay [4] is Focal adhesion kinase 1 (Homo sapiens, UniProt Q05397).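 Also: measured as one member of a kinome panel.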
Focal adhesion kinase 1, sequence (Q05397 whole entry): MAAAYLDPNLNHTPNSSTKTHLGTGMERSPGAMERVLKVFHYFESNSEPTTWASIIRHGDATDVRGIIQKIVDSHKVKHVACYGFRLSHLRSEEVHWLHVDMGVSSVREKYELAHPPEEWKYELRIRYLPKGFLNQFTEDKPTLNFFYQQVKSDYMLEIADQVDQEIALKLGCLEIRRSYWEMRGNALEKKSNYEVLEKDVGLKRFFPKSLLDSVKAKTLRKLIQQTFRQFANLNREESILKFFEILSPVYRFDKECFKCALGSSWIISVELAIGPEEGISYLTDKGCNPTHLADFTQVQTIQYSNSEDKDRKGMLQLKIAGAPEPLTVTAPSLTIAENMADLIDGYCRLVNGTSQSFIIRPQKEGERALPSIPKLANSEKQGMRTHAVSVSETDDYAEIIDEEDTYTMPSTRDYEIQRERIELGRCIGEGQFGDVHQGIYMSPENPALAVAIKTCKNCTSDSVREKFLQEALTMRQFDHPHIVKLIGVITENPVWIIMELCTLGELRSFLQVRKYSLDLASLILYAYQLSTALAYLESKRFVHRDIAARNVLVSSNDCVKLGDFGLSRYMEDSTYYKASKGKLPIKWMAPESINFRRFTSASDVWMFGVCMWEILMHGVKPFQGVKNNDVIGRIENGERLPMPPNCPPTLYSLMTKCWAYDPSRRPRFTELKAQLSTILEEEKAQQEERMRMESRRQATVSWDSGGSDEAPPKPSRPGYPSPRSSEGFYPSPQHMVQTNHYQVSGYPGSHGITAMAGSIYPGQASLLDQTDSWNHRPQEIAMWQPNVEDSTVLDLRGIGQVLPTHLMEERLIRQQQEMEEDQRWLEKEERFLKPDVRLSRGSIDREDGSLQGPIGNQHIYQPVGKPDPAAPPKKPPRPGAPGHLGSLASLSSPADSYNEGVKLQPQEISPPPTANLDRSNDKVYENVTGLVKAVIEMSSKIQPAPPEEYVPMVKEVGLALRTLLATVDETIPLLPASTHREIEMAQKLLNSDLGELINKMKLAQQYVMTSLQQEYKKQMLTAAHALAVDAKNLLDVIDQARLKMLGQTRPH
The target in assay [5] is T3, Serine/threonine-protein kinase D3 (Homo sapiens, UniProt O94806).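 Also: determined within a kinase panel screen, with PRKCN as the panel member.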
T3 sequence (O94806 whole entry): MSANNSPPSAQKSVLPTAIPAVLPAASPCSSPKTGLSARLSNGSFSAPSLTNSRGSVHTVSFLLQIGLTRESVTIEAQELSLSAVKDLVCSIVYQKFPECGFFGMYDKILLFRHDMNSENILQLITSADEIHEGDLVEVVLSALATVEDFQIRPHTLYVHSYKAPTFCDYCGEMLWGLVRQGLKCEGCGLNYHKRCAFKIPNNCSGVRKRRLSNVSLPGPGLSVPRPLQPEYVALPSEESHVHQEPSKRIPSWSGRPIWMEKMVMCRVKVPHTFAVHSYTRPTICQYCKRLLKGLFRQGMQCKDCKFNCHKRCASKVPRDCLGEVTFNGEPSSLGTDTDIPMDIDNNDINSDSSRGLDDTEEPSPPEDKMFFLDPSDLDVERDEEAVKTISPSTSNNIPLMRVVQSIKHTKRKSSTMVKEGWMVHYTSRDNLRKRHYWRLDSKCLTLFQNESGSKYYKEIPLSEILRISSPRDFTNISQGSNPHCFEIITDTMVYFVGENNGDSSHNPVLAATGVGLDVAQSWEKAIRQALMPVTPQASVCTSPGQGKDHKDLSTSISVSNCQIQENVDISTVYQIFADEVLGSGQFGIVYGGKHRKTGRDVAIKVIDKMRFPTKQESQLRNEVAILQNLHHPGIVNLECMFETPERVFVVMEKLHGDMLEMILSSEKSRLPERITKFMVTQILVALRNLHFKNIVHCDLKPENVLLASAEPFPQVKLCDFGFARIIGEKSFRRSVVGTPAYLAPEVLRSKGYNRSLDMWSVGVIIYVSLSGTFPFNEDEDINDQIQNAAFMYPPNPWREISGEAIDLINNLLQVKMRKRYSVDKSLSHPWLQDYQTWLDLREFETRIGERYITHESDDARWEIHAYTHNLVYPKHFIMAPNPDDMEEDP

The target of assay [6] is Macrophage colony-stimulating factor 1 receptor (Homo sapiens, UniProt P07333).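 Also: value comes from the Navigating the Kinome screening panel, CSF1R member.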
Macrophage colony-stimulating factor 1 receptor, sequence (P07333 whole entry): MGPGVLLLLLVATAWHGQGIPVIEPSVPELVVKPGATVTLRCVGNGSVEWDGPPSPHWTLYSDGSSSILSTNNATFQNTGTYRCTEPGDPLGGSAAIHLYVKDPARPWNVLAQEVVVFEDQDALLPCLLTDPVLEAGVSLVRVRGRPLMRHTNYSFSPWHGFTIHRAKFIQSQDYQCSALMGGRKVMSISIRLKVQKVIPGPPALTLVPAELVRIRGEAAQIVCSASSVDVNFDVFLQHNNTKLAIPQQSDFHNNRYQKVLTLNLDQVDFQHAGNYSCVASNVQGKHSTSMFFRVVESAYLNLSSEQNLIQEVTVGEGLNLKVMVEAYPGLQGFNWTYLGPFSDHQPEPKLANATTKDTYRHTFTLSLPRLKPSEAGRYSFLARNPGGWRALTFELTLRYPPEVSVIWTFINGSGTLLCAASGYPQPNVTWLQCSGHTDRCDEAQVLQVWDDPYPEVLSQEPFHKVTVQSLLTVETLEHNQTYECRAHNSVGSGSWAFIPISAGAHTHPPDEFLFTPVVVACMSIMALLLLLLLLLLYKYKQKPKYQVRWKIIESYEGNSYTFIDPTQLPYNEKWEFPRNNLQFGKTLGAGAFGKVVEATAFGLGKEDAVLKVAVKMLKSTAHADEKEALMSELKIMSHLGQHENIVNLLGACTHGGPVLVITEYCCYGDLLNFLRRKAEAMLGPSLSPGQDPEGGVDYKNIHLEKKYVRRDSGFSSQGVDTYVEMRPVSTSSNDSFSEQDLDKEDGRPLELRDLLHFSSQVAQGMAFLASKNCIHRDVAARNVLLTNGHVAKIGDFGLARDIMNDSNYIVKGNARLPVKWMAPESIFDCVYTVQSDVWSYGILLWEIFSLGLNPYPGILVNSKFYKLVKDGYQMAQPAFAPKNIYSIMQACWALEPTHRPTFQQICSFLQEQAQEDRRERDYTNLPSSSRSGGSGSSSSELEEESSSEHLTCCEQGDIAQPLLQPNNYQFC
Assay [7] concerns the target Dual specificity protein kinase CLK2 (Homo sapiens, UniProt P49760).

Dual specificity protein kinase CLK2, sequence (P49760 whole entry): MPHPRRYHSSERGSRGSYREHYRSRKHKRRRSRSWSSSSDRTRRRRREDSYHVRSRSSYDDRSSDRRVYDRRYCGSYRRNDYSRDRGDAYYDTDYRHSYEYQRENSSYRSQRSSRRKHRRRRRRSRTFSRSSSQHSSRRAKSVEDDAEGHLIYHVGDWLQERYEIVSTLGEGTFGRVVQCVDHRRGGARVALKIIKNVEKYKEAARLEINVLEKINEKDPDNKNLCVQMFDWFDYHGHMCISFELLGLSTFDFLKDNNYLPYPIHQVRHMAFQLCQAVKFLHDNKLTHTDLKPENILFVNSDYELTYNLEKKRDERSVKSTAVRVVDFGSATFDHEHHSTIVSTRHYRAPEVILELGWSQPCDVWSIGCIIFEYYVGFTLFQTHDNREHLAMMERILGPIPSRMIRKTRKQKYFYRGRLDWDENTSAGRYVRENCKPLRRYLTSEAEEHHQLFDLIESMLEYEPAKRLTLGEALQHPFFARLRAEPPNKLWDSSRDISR
Platelet-derived growth factor receptor alpha, sequence (P16234 whole entry): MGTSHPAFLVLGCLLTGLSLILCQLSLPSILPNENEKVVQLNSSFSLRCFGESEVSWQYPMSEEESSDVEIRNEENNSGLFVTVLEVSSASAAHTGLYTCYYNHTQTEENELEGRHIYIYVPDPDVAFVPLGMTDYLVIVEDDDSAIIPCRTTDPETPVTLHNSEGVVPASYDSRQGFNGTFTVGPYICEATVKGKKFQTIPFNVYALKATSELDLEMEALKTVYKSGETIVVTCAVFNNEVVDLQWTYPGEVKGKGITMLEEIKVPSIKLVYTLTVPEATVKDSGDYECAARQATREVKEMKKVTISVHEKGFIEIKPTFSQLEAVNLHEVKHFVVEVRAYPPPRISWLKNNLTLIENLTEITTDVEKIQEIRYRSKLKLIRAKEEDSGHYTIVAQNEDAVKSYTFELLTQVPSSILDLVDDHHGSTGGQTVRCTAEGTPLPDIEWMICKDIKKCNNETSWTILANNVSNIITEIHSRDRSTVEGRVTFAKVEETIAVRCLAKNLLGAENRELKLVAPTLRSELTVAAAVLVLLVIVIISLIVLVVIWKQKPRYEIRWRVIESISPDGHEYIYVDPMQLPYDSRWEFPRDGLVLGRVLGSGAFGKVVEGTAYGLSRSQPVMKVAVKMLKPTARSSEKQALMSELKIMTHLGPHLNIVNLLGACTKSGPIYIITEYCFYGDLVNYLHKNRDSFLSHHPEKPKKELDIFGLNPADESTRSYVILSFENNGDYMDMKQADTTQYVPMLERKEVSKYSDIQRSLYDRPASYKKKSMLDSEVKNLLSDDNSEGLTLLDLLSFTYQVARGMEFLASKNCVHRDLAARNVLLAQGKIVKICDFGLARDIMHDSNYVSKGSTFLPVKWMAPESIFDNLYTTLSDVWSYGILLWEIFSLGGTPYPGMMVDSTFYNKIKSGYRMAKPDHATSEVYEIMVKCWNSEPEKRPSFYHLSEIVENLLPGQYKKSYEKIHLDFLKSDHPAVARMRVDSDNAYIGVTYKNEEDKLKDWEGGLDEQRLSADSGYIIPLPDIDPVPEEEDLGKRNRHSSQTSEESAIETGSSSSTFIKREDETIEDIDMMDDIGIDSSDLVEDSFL

For `O=C(Cc1ccccc1)NC1(O)C(=O)c2ccccc2C1=O`, the AC50 in assay [1] was 6.13 µM (active).

With `O=c1[nH]c2cc(Br)cnc2[nH]1`, the Ki is 79.4 µM (active) in assay [2]; 5.01 µM (active) in assay [3]; 31.6 µM (active) in assay [4]; 20 µM (active) in assay [5]; > 100 µM (inactive) in assay [6]; 25.1 µM (active) in assay [7].

On to `O=C(Nc1cccc(C(F)(F)F)n1)Nc1ccnc2cc(OC(F)F)ccc12`, for which the Ki is > 3.16 µM (inactive) in assay [2]; > 2.51 µM (inactive) in assay [3]; > 6.31 µM (inactive) in assay [4]; > 3.98 µM (inactive) in assay [5]; > 2.51 µM (inactive) in assay [6]; > 3.98 µM (inactive) in assay [7].

As for `O=C(Nc1cccc(C(F)(F)F)n1)Nc1ccnc2cc(Cl)ccc12`, the Ki in assay [2] is > 3.16 µM (inactive); in assay [3] it was > 2.51 µM (inactive); in assay [5], > 3.98 µM (inactive); in assay [6], > 2.51 µM (inactive); in assay [7] it was > 3.98 µM (inactive).

In the case of `CCC1CC(NS(=O)(=O)C2CC2)CC1c1ncc2cnc3[nH]ccc3n12` (stereo unspecified), the Ki in assay [2] is > 3.16 µM (inactive); in assay [3], > 2.51 µM (inactive); in assay [4], > 6.31 µM (inactive); in assay [5], > 3.98 µM (inactive); in assay [6] it was 1.58 µM (active); in assay [7], > 3.98 µM (inactive).

As for `Cc1cc(C)c(S(=O)(=O)/N=C2\C=C(Nc3ccc(C(=O)O)cc3)C(=O)c3ccccc32)c(C)c1`, the AC50 in assay [1] was 0.149 µM (active).

Regarding `COC(=O)c1nc(-c2ccc3c(n2)C(=O)C(=N)C(OC)=C3O)c(N)c(-c2ccc(OC)c(OC)c2O)c1C`, the AC50 in assay [1] is > 380 µM (inconclusive).
